Here are results for eight molecules from patent publication EP0326331B1, “Substituted quinolines and cinnolines” (Dow AgroSciences LLC, priority 1988, dated 1989).

What all share (type): in vivo
Series [1] deals with southern armyworm (Spodopetra eridania Cramer). Kind of series: Mite/insect screen, SAW. As to conditions: Spodoptera eridania, percent mortality, read-out: SAW RESULTS %. Put shortly:
(§1)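 Activity is expressed as percent mortality at the indicated spray concentrations. Plants are sprayed to runoff on upper and lower leaf surfaces with aqueous dilutions of an acetone/alcohol emulsifiable formulation, then dried for one hour.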

In the next series the test system is corn rootworm. The series can be described thus: Mite/insect screen, CRW. As to conditions: percent mortality; for mortality at 24 ppm / mortality at 12 ppm: read-out: CRW RESULTS %. Put shortly: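 Each compound, taken up in an emulsifier-containing acetone/alcohol mixture and diluted in water to the stated concentrations, was assessed for percent kill following standard exposure times.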

Series [2] concerns Puccinia recondita tritici (leaf rust). Kind of series: Test 1 greenhouse foliar spray screen, leaf rust on wheat. To be noted: for LEAF RUST: disease control rating, foliar spray on wheat, 400 ppm (+++ at 100 ppm); for pest or weed control at 400 ppm: Puccinia recondita, foliar, Test 1, foliar spray on wheat, disease control rating at 400 ppm / 100 ppm.
Series [3] has as its system Botrytis cinerea (gray mold). Kind of series: Test 1 greenhouse foliar spray screen, gray mold on grape berries. As to conditions: for GRAY MOLD: disease control rating, spray on grape berries, 400 ppm (+++ at 100 ppm); for pest or weed control at 400 ppm: Botrytis cinerea, foliar, Test 1, spray on grape berries, disease control rating at 400 ppm / 100 ppm.
In series [4] the test system is Twospotted spider mites (Tetranychus urticae Koch). The series can be described thus: Mite/insect screen, SM. To be noted: for mortality at 400 ppm / mortality at 200 ppm: Tetranychus urticae, read-out: SM RESULTS %; for mortality at 400 ppm / mortality at 200 ppm / SM RESULTS %: percent mortality. Put shortly:
as §1

In series [5] the test system is Erysiphe graminis tritici (powdery mildew). The series can be described thus: Test 1 greenhouse foliar spray screen, powdery mildew on wheat. To be noted: for POWD MDEW: disease control rating, foliar spray on wheat, 400 ppm (+++ at 100 ppm); for pest or weed control at 400 ppm: Blumeria graminis, foliar, Test 1, foliar spray on wheat, disease control rating at 400 ppm / 100 ppm, read-out: POWD MDEW.

Series [6] concerns Pseudoperonospora cubensis (downy mildew). Kind of series: Test 1 greenhouse foliar spray screen, downy mildew on squash. As to conditions: for DOWN MDEW: disease control rating, foliar spray on squash, 400 ppm (+++ at 100 ppm); for pest or weed control at 400 ppm: Pseudoperonospora cubensis, foliar, Test 1, foliar spray on squash, disease control rating at 400 ppm / 100 ppm, read-out: DOWN MDEW.

The next series relates to plant pathogens. Kind of series: Fungicidal efficacy against a broad spectrum of plant pathogens (summary of screen). As to conditions: summary statement in the description.
For series [7], the system named is melon aphids (Aphis gossypii Glover). The series can be described thus: Mite/insect screen, MA. As to conditions: percent mortality; for mortality at 400 ppm / mortality at 200 ppm: Aphis gossypii, read-out: MA RESULTS %. Put shortly: as §1
The subject of series [8] is Pyricularia oryzae (rice blast). Kind of series: whole plant or invertebrate. To be noted: for RICE BLAST: disease control rating, foliar spray on rice, 400 ppm (+++ at 100 ppm); for pest or weed control at 400 ppm: Pyricularia oryzae, foliar, read-out: RICE BLAST, Test 1, foliar spray on rice, disease control rating at 400 ppm / 100 ppm.
Series [9] concerns Venturia inaequalis (apple scab). Kind of series: Test 1 greenhouse foliar spray screen, apple scab on apple seedling.
Series [10] concerns Cercospora beticola (leaf spot). Kind of series: Test 1 greenhouse foliar spray screen, leaf spot on sugar beet.
The test system of series [11] is Septoria tritici (leaf blotch). The series can be described thus: Test 1 greenhouse foliar spray screen, leaf blotch on wheat.
[12] abbreviates: foliar, rate 400 ppm, foliar spray on squash.
Where [13] appears, read: foliar, rate 200 ppm, foliar spray on squash.

Where two headings read alike, the source gives them in different places.

Take `Fc1cccc2c(NCCc3cccc(-c4ccccc4)c3)ccnc12` [Example 72, N-[2-(1,1'-biphenyl)-3-ylethyl]-8-fluoro-4-quinolinamine]: the mortality at 400 ppm in series [1] (SAW, SM & MA RATE 400 PPM) worked out at 0%; in [4] (SAW, SM & MA RATE 400 PPM) it was 0%; in series [7] (SAW, SM & MA RATE 400 PPM), 0%. For the same molecule, the mortality at 24 ppm in the series on corn rootworm (CRW RATE 24.00 PPM) was found to be 0%. The “LEAF RUST” value in [2] was “+++ (90-100% control at 100 ppm)”. Moreover, the “GRAY MOLD” value in series [3] is reported as “- (0-19% control at 400 ppm)”. For the same molecule, the “POWD MDEW” value in series [5] is “++ (90-100% control at 400 ppm)”. In addition, the “DOWN MDEW” value in [6] was “+++ (90-100% control at 100 ppm)”. The “activity against a broad spectrum of plant pathogens” value (“activity against a broad spectrum” below) in the series with plant pathogens is recorded as “particularly excellent activity”. Also, the “RICE BLAST” value in series [8] is “+++ (90-100% control at 100 ppm)”.

Take `Fc1cccc2c(NCCc3ccc(Cl)cc3Cl)ccnc12` [Example 76, N-[2-(2,4-dichlorophenyl)ethyl]-8-fluoro-4-quinolinamine]: in the series with corn rootworm (CRW RATE 12.00 PPM), the “CRW RESULTS %” value is reported as 0% and the mortality at 12 ppm worked out at 0%. For the same molecule, the “LEAF RUST” value in series [2] is given as “+++ (90-100% control at 100 ppm)”. Besides, the “APPL SCAB” value in series [9] (disease control rating, foliar spray on apple seedling, 400 ppm (+++ at 100 ppm)) is given as “+ (20-89% control at 400 ppm)”. For the same molecule, the “GRAY MOLD” value in series [3] is “- (0-19% control at 400 ppm)”. For the same molecule, in [4] (SAW, SM & MA RATE 200 PPM), the mortality at 200 ppm amounted to 0% and the “SM RESULTS %” value is reported as 0%. For the same molecule, the “POWD MDEW” value in series [5] was “++ (90-100% control at 400 ppm)”. In addition, the “DOWN MDEW” value in [6] is listed as “+++ (90-100% control at 100 ppm)”. The “activity against a broad spectrum” value in the series on plant pathogens is recorded as “particularly excellent activity”. Besides, in series [7] (SAW, SM & MA RATE 200 PPM), the mortality at 200 ppm turned out to be 0% and the “MA RESULTS %” value was determined as 0%. The “RICE BLAST” value in [8] is reported as “+++ (90-100% control at 100 ppm)”. Also, the “LEAF SPOT” value in series [10] (disease control rating, foliar spray on sugar beet, 400 ppm (+++ at 100 ppm)) was “- (0-19% control at 400 ppm)”. Also, the “LEAF BLOT” value in series [11] (disease control rating, foliar spray on wheat, 400 ppm (+++ at 100 ppm)) is recorded as “+++ (90-100% control at 100 ppm)”.

For the molecule `Fc1cccc2c(OCCc3ccccc3C(F)(F)F)ccnc12` [Example 206, 8-fluoro-4-[2-(2-(trifluoromethyl)phenyl)ethoxy]quinoline], the mortality at 400 ppm in [1] (setting [12]), in series [4] (setting [12]) and in [7] (setting [12]) was 0% throughout. Besides, in the series with corn rootworm (CRW rate 24.00 ppm), the mortality at 24 ppm turned out to be 0%. The pest or weed control at 400 ppm fell in the range of 90 to 100% in series [2]; 0 to 19% in series [3]; 90 to 100% in series [5]; 90 to 100% in series [6]; 90 to 100% in series [8]. Besides, in the series with plant pathogens, the “activity against a broad spectrum” value is on record as “particularly excellent activity”.

On to `Fc1cccc2c(OCCc3ccc(Cl)cc3)ccnc12` [Example 209, 4-[2-(4-chlorophenyl)-ethoxy]-8-fluoroquinoline], for which the “CRW RESULTS %” value in the series on corn rootworm (CRW rate 12.00 ppm) is on record as 0%. For the same molecule, the mortality at 12 ppm in the series on corn rootworm (CRW rate 12.00 ppm) came out at 0%. Moreover, the pest or weed control at 400 ppm lay in the range of 90 to 100% in series [2]; 20 to 89% in [9] (Venturia inaequalis, Test 1, foliar spray on apple seedling, disease control rating at 400 ppm / 100 ppm, read-out: APPL SCAB); 0 to 19% in series [3]; 90 to 100% in series [5]; 90 to 100% in [6]; 90 to 100% in [8]. The pest or weed control at 400 ppm in [10] (Cercospora beticola, Test 1, foliar spray on sugar beet, disease control rating at 400 ppm / 100 ppm) was in the range of 90 to 100%; in [11] (Zymoseptoria tritici, Test 1, foliar spray on wheat, disease control rating at 400 ppm / 100 ppm, read-out: LEAF BLOT), 90 to 100%. For the same molecule, the mortality at 200 ppm in series [4] (setting [13]) turned out to be 0%. Also, the “SM RESULTS %” value in series [4] (rate 200 ppm, foliar spray on squash) is 0%. The “activity against a broad spectrum” value in the series on plant pathogens is recorded as “particularly excellent activity”.

`Cc1cccc(CCOc2ccnc3c(F)cccc23)c1` [Example 224, 8-fluoro-4-[2-(3-methylphenyl)ethoxy]quinoline]: the mortality at 400 ppm in series [1] (setting [12]), in series [4] (setting [12]) and in [7] (setting [12]) was 0% in each case. For the same molecule, the mortality at 24 ppm in the series on corn rootworm (CRW rate 24.00 ppm) amounted to 0%. Besides, the pest or weed control at 400 ppm in series [2] is 90 to 100%; in series [3], 0 to 19%; in [5], 90 to 100%; in series [6], 90 to 100%; in series [8], 90 to 100%. Moreover, in the series on plant pathogens, the “activity against a broad spectrum” value is listed as “particularly excellent activity”.

With `Fc1ccccc1CCOc1ccnc2c(F)cccc12` [Example 225, 8-fluoro-4-[2-(2-fluorophenyl)ethoxy]quinoline], the mortality at 400 ppm in series [1] (setting [12]), in [4] (setting [12]) and in [7] (setting [12]) was 0% each time. Besides, the mortality at 24 ppm in the series on corn rootworm (CRW rate 24.00 ppm) is 0%. For the same molecule, the pest or weed control at 400 ppm in [2] was 90 to 100%; in series [3], 0 to 19%; in [5], 90 to 100%; in series [6], 90 to 100%; in series [8], 90 to 100%. Moreover, in the series on plant pathogens, the “activity against a broad spectrum” value is “particularly excellent activity”.

Turning to `CC(C)c1ccc(CCOc2ccnc3c(F)cccc23)cc1` [Example 238, 8-fluoro-4-[2-(4-(i-propyl)phenyl)ethoxy]quinoline], the mortality at 200 ppm turned out to be 0% in series [1] (setting [13]), 100% in [4] (setting [13]) and 100% in series [7] (setting [13]). For the same molecule, the mortality at 400 ppm in series [1] (setting [12]) was 100%; in [4] (setting [12]), 0%; in series [7] (setting [12]), 0%. Further, the mortality at 12 ppm with corn rootworm (CRW rate 12.00 ppm) came out at 0%. Besides, the mortality at 24 ppm in the series with corn rootworm (CRW rate 24.00 ppm) came to 0%. In addition, the pest or weed control at 400 ppm is 90 to 100% in series [2]; 20 to 89% in series [3]; 90 to 100% in series [5]; 90 to 100% in [6]; 90 to 100% in [8]. Moreover, the activity as miticides result in [4] (summary statement in the description) is listed as “particularly excellent activity”. The “activity against a broad spectrum” value in the series with plant pathogens is reported as “particularly excellent activity”.

Consider `CC(C)c1ccc(CCCc2ccnc3c(F)cccc23)cc1` [Example 256, 8-fluoro-4-[3-(4-(i-propyl)phenyl)propyl]quinoline], for which the results for the mortality at 400 ppm in [1] (setting [12]), in series [4] (setting [12]) and in [7] (setting [12]) were 100%, 0% and 0%, respectively. Besides, the mortality at 24 ppm in the series on corn rootworm (CRW rate 24.00 ppm) stood at 100%. Also, the pest or weed control at 400 ppm in [2] was 90 to 100%; in series [3] it was 0 to 19%; in series [5] it was 90 to 100%; in series [6], 90 to 100%; in series [8] it was 90 to 100%. In addition, the “activity against a broad spectrum” value in the series with plant pathogens is reported as “particularly excellent activity”.
